From US4086349A, “Quinolopyran-4-one-2-carboxylic acid derivatives and salts thereof as novel compounds and as medicines for treatment of allergic asthma” (Mitsubishi Yuka Pharmaceutical Co., Ltd., priority 1975, dated 1978)

Legend:
[1] = system: passive cutaneous anaphylaxis; assay: Passive cutaneous anaphylaxis tests (PCA) on rats; format: in vivo, SLC-strain Wistar rat; settings: intravenous, rat PCA; for inhibition in vivo at 3 mg/kg / inhibition in vivo at 0.3 mg/kg: read-out: Inhibition rate
Experimental: To test the effectiveness of compounds of this invention for treatment of allergic asthma, evaluation of antiallergy effect was carried out by passive cutaneous anaphylaxis tests (PCA) on rats.
Rats (SLC-strain Wistar rat) were immunized with egg albumin which had been recrystallized five times and Bodetella pertussis vaccine, and, after 13 days, serum was taken from these rats.
This serum was diluted to 1/128 and intradermally injected into the back of rats. 48 hours thereafter, the compounds of the invention as set forth in the following table in the form of salts thereof with tris (hydroxymethyl)methyl ammonium dissolved in saline in the indicated quantities as the salts were administered intravenously, and 5 minutes thereafter, saline in which egg albumin and Evans Blue were dissolved was challenged intravenously. After 30 minutes, the animals were killed and the skins were removed and the quantity of the Evans Blue which has leaked as a result of the antigen antibody reaction was extracted through the use of Na2 SO4 solution and acetone, colorimetry being carried out at 620 mμ.

allergic asthma = assay: Classification in view of activity on treatment of allergic asthma; format: in vivo; settings: first group most preferable, second more preferable, third preferable
[2] = 50% lethal dose (LD50), i.v., mouse; settings: in vivo, iv
[3] = dose 3 mg/kg (quantity as the tris (hydroxymethyl) methyl ammonium salt)
[4] = dose 0.3 mg/kg (quantity as the tris (hydroxymethyl) methyl ammonium salt)

Row | Compound | inhibition in vivo at 3 mg/kg [1, 3] | inhibition in vivo at 0.3 mg/kg [1, 4] | preference group in view of activity on treatment of allergic asthma (allergic asthma) | other results
1 | Cc1cc(C)c2nc(O)c3c(=O)cc(C(=O)O)oc3c2c1 [Compound 12, 7,9-dimethyl-5-hydroxy-quinolo[4,3-b]-pyran-4-one-2-carboxylic acid] | 90% |  |  | 
2 | Cc1ccc2c(nc(O)c3c(=O)cc(C(=O)O)oc32)c1C [Compound 1, 7,8-dimethyl-5-hydroxy-quinolo [4,3-b]-pyran-4-one-2-carboxylic acid] | 100% | 98% | most preferable | LD50 [2]: 560 mg/kg; selectivity ratio [2]: 20000
3 | Cc1ccc2nc(O)c3c(=O)cc(C(=O)O)oc3c2c1 [Compound 2, 9-methyl-5-hydroxy-quinolo [4,3-b]-pyran-4-one-2-carboxylic acid] | 100% | 63% | most preferable | 
4 | COc1ccc2c(c1)nc(O)c1c(=O)cc(C(=O)O)oc12 [Compound 15, 8-methoxy-5-hydroxy-quinolo[4,3-b]-pyran-4-one-2-carboxylic acid] | 90% |  |  | 
5 | COc1cccc2c1nc(O)c1c(=O)cc(C(=O)O)oc12 [Compound 5, 7-methoxy-5-hydroxy-quinolo[4,3-b]-pyran-4-one-2-carboxylic acid] | 98% | 37% |  | 
6 | Cc1cccc2c1nc(O)c1c(=O)cc(C(=O)O)oc12 [Compound 3, 7-methyl-5-hydroxy-quinolo [4,3-b]-pyran-4-one-2-carboxylic acid] | 100% | 27% |  | 
7 | CCOC(=O)c1ccc2nc(O)c3c(=O)cc(C(=O)O)oc3c2c1 [Compound 9, 9-ethoxycarbonyl-5-hydroxy-quinolo[4,3-b]-pyran-4-one-2-carboxylic acid] | 100% | 39% | more preferable | 
8 | Cc1c(Cl)ccc2c1nc(O)c1c(=O)cc(C(=O)O)oc12 [Compound 11, 7-methyl-8-chloro-5-hydroxy-quinolo[4,3-b]-pyran-4-one-2-carboxylic acid] |  |  | more preferable | Inhibition rate [1, 4]: 26%; Inhibition rate [1, 3]: 87%
9 | O=C(O)c1cc(=O)c2c(O)nc3ccc(OCc4ccccc4)cc3c2o1 [Compound 8, 9-benzyloxy-5-hydroxy-quinolo[4,3-b]-pyran-4-one-2-carboxylic acid] | 96% | 34% | more preferable | 
10 | O=C(O)c1cc(=O)c2c(O)nc3ccc(Cl)cc3c2o1 [Compound 7, 9-chloro-5-hydroxy-quinolo[4,3-b]-pyran-4-one-2-carboxylic acid] | 100% | 67% | most preferable | 
11 | O=C(O)c1cc(=O)c2c(O)nc3ccc(-c4ccccc4)cc3c2o1 [Compound 10, 9-phenyl-5-hydroxy-quinolo[4,3-b]-pyran-4-one-2-carboxylic acid] | 90% |  | preferable | 
12 | O=C(O)c1cc(=O)c2c(O)nc3ccc(Br)cc3c2o1 [Compound 13, 9-bromo-5-hydroxy-quinolo[4,3-b]-pyran-4-one-2-carboxylic acid] | 90% |  |  | 
13 | CCCCc1ccc2nc(O)c3c(=O)cc(C(=O)O)oc3c2c1 [Compound 6, 9-n-butyl-5-hydroxy-quinolo[4,3-b]-pyran-4-one-2-carboxylic acid] | 94% | 26% |  | 
14 | CCc1ccc2nc(O)c3c(=O)cc(C(=O)O)oc3c2c1 [Compound 17, 9-ethyl-5-hydroxy-quinolo[4,3-b]-pyran-4-one-2-carboxylic acid] | 90% |  |  | 
15 | COc1ccc2nc(O)c3c(=O)cc(C(=O)O)oc3c2c1 [Compound 4, 9-methoxy-5-hydroxy-quinolo[4,3-b]-pyran-4-one-2-carboxylic acid] | 98% | 38% |  | 
16 | O=C(O)c1cc(=O)c2c(O)nc3ccc(F)cc3c2o1 [Compound 14, 9-fluoro-5-hydroxy-quinolo[4,3-b]-pyran-4-one-2-carboxylic acid] | 90% |  |  | 
17 | COc1cc2nc(O)c3c(=O)cc(C(=O)O)oc3c2cc1OC [Compound 16, 8,9-dimethoxy-5-hydroxy-quinolo[4,3-b]-pyran-4-one-2-carboxylic acid] | 90% |  |  | 
